# Test results published in patent US20230081986A1, “METHOD AND REAGENTS TO IMPROVE NONANIMAL OCULAR TOXICITY TESTS” (Lebrun Labs LLC, priority 2021, published 2023).
# Tests used:
# rabbit cornea = assay: Cornea exposure for different times, with and without the esterase inhibitor ebelactone; conditions: for state of the cornea: 6-minute exposure
# Description: FIG. 2 depicts the effects of ebelactone on rabbit cornea.
# To test this hypothesis, we incubated corneas with 100 µL of the test chemical for different exposure times and observed that methyl cyanoacetate produced a toxic effect on the eye after 6 minutes of exposure. To confirm that this increased toxicity was metabolically related, eyes were treated with ebelactone, an inhibitor of nonspecific esterases. […] Based on these findings, we updated the IVD EIT method to include the following: Each chemical is first tested using a direct 1-minute application to the eye; if negative, the chemical is then retested for 6 minutes using the metabolic test (META). All of the steps of the META test are the same as the direct test except for the dosing step. For the META, 100 µL of tear solution (saline with ascorbic acid, protein) is first added to the dosing ring, followed by the addition of 100 µL of the material to be tested.
# [1] = literature review [11]; cited from earlier work
compound,measurement,setting,value
COC(=O)CC#N [methyl cyanoacetate],state of the cornea,rabbit cornea; in the presence of ebelactone,somewhat swollen but there are mostly viable cells
same,state of the cornea,rabbit cornea; without ebelactone,swollen with no viable cells
same,effect on the eye,"rabbit cornea; 100 µL, after 6 minutes of exposure",toxic effect
same,classification by most nonanimal tests,[1],misclassified as FN
